Assays:
human AT1 receptor = target: T1, human AT1 receptor (Homo sapiens, UniProt P30556); assay: AT1 receptor antagonistic activity: [125I]-angiotensin II binding assay on human AT1 receptor-expressing CHO-K1 cellular membrane fraction; details: 22.5 pM [125I]-angiotensin II, 1 hr room temperature
T1 construct: expressed in transfected cells; membrane fraction
T1 sequence (P30556 1-359): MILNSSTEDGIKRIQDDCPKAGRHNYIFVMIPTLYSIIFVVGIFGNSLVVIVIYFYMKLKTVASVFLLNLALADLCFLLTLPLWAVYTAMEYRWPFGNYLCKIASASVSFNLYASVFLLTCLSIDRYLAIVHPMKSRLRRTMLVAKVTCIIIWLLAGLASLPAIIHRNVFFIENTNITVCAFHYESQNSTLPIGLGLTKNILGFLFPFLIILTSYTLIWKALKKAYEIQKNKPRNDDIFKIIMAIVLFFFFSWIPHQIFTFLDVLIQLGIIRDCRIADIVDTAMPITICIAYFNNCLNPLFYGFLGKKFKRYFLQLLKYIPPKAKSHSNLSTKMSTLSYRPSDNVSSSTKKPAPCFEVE
Summary of the method: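 Competition binding used radiolabelled angiotensin II on stably transfected CHO-K1 membrane fractions in Tris pH 7.4/MgCl2 buffer, optionally containing 0.3 mg/mL fatty acid-free BSA, 1 hr at room temperature. Filtration onto GF/C separated bound tracer, and nonspecific binding was measured with candesartan.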

human PPARγ = target: T2, human PPARγ (Homo sapiens, UniProt P37231); assay: PPARγ agonistic activity: luciferase reporter assay in PPARγ:RXRα:4ERPP/CHO-K1 cells; assay type: cell-based; details: CHO-K1, test compound 10^−6 M; luciferase activity of control compound X (1 μM) = 100%, non-administration group = 0%
T2 construct: expressed in transfected cells
T2 sequence (P37231 1-477 isoform P37231-2): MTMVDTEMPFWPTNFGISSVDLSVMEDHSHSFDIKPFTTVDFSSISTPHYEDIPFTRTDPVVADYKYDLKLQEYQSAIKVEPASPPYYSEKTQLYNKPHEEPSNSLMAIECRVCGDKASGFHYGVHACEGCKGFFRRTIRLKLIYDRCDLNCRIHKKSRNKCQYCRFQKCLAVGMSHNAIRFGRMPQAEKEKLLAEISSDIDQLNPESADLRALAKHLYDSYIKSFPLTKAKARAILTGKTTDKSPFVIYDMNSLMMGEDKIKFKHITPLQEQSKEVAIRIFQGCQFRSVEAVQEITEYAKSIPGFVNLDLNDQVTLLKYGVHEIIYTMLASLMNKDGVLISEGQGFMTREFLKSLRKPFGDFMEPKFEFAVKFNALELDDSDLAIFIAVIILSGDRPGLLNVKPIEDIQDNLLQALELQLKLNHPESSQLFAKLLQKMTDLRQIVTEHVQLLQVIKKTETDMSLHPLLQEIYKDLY
T2 sequence (P19793 1-462 partner): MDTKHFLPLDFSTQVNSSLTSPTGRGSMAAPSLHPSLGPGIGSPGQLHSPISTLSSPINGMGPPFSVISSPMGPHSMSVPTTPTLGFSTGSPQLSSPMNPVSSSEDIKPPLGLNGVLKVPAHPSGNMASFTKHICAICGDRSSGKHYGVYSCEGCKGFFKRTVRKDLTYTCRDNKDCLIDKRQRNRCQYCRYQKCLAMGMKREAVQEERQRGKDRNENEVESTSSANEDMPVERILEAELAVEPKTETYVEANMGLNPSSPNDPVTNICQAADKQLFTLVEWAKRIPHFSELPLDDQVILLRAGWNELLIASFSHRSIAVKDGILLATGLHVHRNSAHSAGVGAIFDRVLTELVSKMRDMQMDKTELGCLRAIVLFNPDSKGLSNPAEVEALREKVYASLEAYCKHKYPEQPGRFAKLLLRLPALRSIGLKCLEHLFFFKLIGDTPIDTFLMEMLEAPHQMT
Summary of the method: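 Activity is expressed relative to untreated cells (0%) and 1 μM reference compound X (100%), from luciferase luminescence. Reporter line: PPARγ:RXRα:4ERPP/CHO-K1, exposed to compound for one day at 37 °C in F12 medium containing 0.1% fatty-acid-free BSA.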

IC50 (human AT1 receptor)	activation at 1 µM (human PPARγ)	Structure (SMILES)
1.9 nM	19%	CCCc1c(Cc2ccc(-c3ccccc3-c3noc(=O)[nH]3)cc2)c(=O)n([C@H]2CC[C@H](OC(CC)C(C)(C)O)CC2)c2ncnn12 (stereo partly drawn) [Example 348, 4-[trans-4-(1-ethyl-2-hydroxy-2-methylpropoxy)cyclohexyl]-6-{[2′-(5-oxo-4,5-dihydro-1,2,4-oxadiazol-3-yl)biphenyl-4-yl]methyl}-7-propyl[1,2,4]triazolo[1,5-a]pyrimidin-5(4H)-one]
1.4 nM	20%	CCCc1c(Cc2ccc(-c3ccccc3-c3noc(=O)[nH]3)cc2)c(=O)n([C@H]2CC[C@H](OCC(O)C(F)F)CC2)c2ncnn12 (stereo partly drawn) [Example 352, 4-[trans-4-(3,3-difluoro-2-hydroxypropoxy)cyclohexyl]-6-{[2′-(5-oxo-4,5-dihydro-1,2,4-oxadiazol-3-yl)biphenyl-4-yl]methyl}-7-propyl[1,2,4]triazolo[1,5-a]pyrimidin-5(4H)-one]
1.2 nM	18%	CCCc1c(Cc2ccc(-c3ccccc3-c3noc(=O)[nH]3)cc2)c(=O)n([C@H]2CC[C@H](OCC(C)(O)CF)CC2)c2nc(C)nn12 (stereo partly drawn) [Example 354, 4-[trans-4-(3-fluoro-2-hydroxy-2-methylpropoxy)cyclohexyl]-2-methyl-6-{[2′-(5-oxo-4,5-dihydro-1,2,4-oxadiazol-3-yl)biphenyl-4-yl]methyl}-7-propyl[1,2,4]triazolo[1,5-a]pyrimidin-5(4H)-one]
1.7 nM	25%	CCCc1c(Cc2ccc(-c3ccccc3-c3noc(=O)[nH]3)cc2F)c(=O)n([C@H]2CC[C@H](OC(CC)C(C)(C)O)CC2)c2ncnn12 (stereo partly drawn) [Example 355, 4-[trans-4-(1-ethyl-2-hydroxy-2-methylpropoxy)cyclohexyl]-6-{[3-fluoro-2′-(5-oxo-4,5-dihydro-1,2,4-oxadiazol-3-yl)biphenyl-4-yl]methyl}-7-propyl[1,2,4]triazolo[1,5-a]pyrimidin-5(4H)-one]
1.7 nM	19%	CCCc1c(Cc2ccc(-c3ccccc3-c3noc(=O)[nH]3)cc2F)c(=O)n([C@H]2CC[C@H](OCC(C)(C)O)CC2)c2nc(C)nn12 [Example 360, 6-{[3-fluoro-2′-(5-oxo-4,5-dihydro-1,2,4-oxadiazol-3-yl)biphenyl-4-yl]methyl}-4-[trans-4-(2-hydroxy-2-methylpropoxy)cyclohexyl]-2-methyl-7-propyl[1,2,4]triazolo[1,5-a]pyrimidin-5(4H)-one]
2.5 nM	26%	CCCc1c(Cc2ccc(-c3ccccc3-c3noc(=O)[nH]3)cc2F)c(=O)n([C@H]2CC[C@H](OC3(C(C)(C)O)CC3)CC2)c2ncnn12 [Example 362, 6-{[3-fluoro-2′-(5-oxo-4,5-dihydro-1,2,4-oxadiazol-3-yl)biphenyl-4-yl]methyl}-4-(trans-4-{[1-(1-hydroxy-1-methylethyl)cyclopropyl]oxy}cyclohexyl)-7-propyl[1,2,4]triazolo[1,5-a]pyrimidin-5(4H)-one]
2.3 nM	22%	CCCc1c(Cc2ccc(-c3ccccc3-c3noc(=O)[nH]3)cc2)c(=O)n([C@H]2CC[C@H](OC3(C(C)(C)O)CC3)CC2)c2ncnn12 [Example 363, 4-(trans-4-{[1-(1-hydroxy-1-methylethyl)cyclopropyl]oxy}cyclohexyl)-6-{[2′-(5-oxo-4,5-dihydro-1,2,4-oxadiazol-3-yl)biphenyl-4-yl]methyl}-7-propyl[1,2,4]triazolo[1,5-a]pyrimidin-5(4H)-one]
2.8 nM	29%	CCCc1c(Cc2ccc(-c3ccccc3-c3noc(=O)[nH]3)cc2F)c(=O)n([C@H]2CC[C@H](OC(C)C(O)(CF)CF)CC2)c2ncnn12 (stereo partly drawn) [Example 364, 4-{trans-4-[3-fluoro-2-(fluoromethyl)-2-hydroxy-1-methylpropoxy]cyclohexyl}-6-{[3-fluoro-2′-(5-oxo-4,5-dihydro-1,2,4-oxadiazol-3-yl)biphenyl-4-yl]methyl}-7-propyl[1,2,4]triazolo[1,5-a]pyrimidin-5(4H)-one]

— patent US8283353B2, “Fused ring compound and use thereof” (Takeda Pharmaceutical Company Limited, priority 2009, dated 2012)
